Assay results published in publication PMC10952255, “Solid‐Phase Synthesis and Biological Evaluation of Peptides ADP‐Ribosylated at Histidine” (Angewandte Chemie (Weinheim an Der Bergstrasse, Germany), 2023).
Starred links: 1 amine or outer side, 2 acyl side, 3 side chain; linkers in the order of their positions; H or OH if unused. Non-standard residues stand in square brackets, D forms with d. Residues, ends and D or L forms follow the SMILES beside them. X1 = Nc1ncnc2c1ncn2[C@@H]1O[C@H](COP(=O)(O)OP(=O)(O)OC[C@H]2O[C@H](n3cncc3C[C@H](N[*:1])C(=O)[*:2])[C@H](O)[C@@H]2O)[C@@H](O)[C@H]1O

Columns and labels:
[1] = Chemical stability assay (LC-MS based) under acidic, basic and nucleophilic conditions; assay type: physicochemical
From the text: Having prepared ADPr‐His peptides 26–28, we tested their stability under basic and acidic conditions in an LC–MS‐based assay to evaluate their sensitivity for future synthetic and biochemical studies. A selected set of chemically diverse conditions (aqueous acid, aqueous base and a neutral nucleophile) was probed because these are commonly applied in proteomic studies to identify ADP‐ribosylation sites[22] in proteins or during sample preparation.[14, 28] Aqueous solutions of the ADPr peptides with a final concentration of 0.1 M TFA, 0.1 M NaOH or 0.5 M NH2OH were prepared and shaken for 24 h at room temperature. […] In contrast, the NaOH treatment led to some conversion of the N(τ)‐ribosylated histidines 26 and 27 into products with an identical mass (approximately 7 and 11 %, respectively), indicating a slow epimerization of the modified histidine residue in N(τ)‐ribosyl peptides. […]
Figure 5 A) Chemical stability of peptide 28 under basic conditions (NaOH, 0.1 M). […] Peptide degradation was quantified by analyzing the UV‐trace (260 nm) using Xcalibur software. […] Enzymatic turnover of the various peptides was assessed by monitoring AMP release directly (NudT16) or converting released ADPr via NudT5 to AMP. AMP was measured using the AMP‐Glo assay (Promega). Samples are background corrected and normalized to NudT16 activity The data represents mean values±SD measured in triplicates. […]

[2] = quoted without reference; cited from earlier work

CC(C)C[C@H](NC(=O)CNC(=O)[C@H](C)NC(=O)CNC(=O)[C@H](Cc1cncn1[C@H]1O[C@H](COP(=O)(O)OP(=O)(O)OC[C@H]2O[C@@H](n3cnc4c(N)ncnc43)[C@H](O)[C@@H]2O)[C@@H](O)[C@H]1O)NC(=O)[C@H](Cc1ccccc1)NC(=O)[C@@H](N)[C@@H](C)O)C(=O)N[C@H](C(=O)N[C@H](C(=O)N1CCC[C@H]1C(=O)N[C@H](C(=O)N[C@@H](CC(=O)O)C(=O)N[C@@H](CCCCN)C(=O)O)C(C)C)C(C)C)C(C)C [compound 28] (H-TF[X1]GAGLVVPVDK-OH)
ADPr-peptide remaining in its original form ([1]; 0.1 M NaOH, after 24 h, LC-MS UV-trace 260 nm): approximately 60%
degradation of the pyrophosphate linkage ([1]; alkaline treatment (0.1 M NaOH), after a week, LC-MS): no degradation of the pyrophosphate linkage was observed

c1c[nH]nn1 [1,2,3‐triazole]
pKa [2]: 9.4
